Assay: xn = mol fraction of the nth substance listed
Conditions: Liquid

CCCCCl [1-chlorobutane] + CCCCCC
mass density [kg/m3]
Conditions | x1 = 0.1099 | x1 = 0.212 | x1 = 0.2925 | x1 = 0.316 | x1 = 0.405 | x1 = 0.4978 | x1 = 0.5975 | x1 = 0.6869 | x1 = 0.8294 | x1 = 0.9025
303.15 K, 15000 kPa | – | – | – | – | – | 763.87 | 786.55 | 807.83 | 843.86 | 863.22
303.15 K, 20000 kPa | 689.49 | 708.98 | 724.92 | 729.73 | 748.24 | 768.43 | 791.14 | 812.44 | 848.41 | 867.82
303.15 K, 25000 kPa | 693.71 | 713.22 | 729.21 | 733.98 | 752.58 | 772.8 | 795.51 | 816.83 | 852.75 | 872.22
303.15 K, 30000 kPa | 697.71 | 717.27 | 733.29 | 738.06 | 756.71 | 776.94 | 799.69 | 821.01 | 856.96 | 876.44
303.15 K, 35000 kPa | 701.46 | 721.06 | 737.11 | 741.91 | 760.56 | 780.82 | 803.62 | 824.94 | 860.94 | 880.41
313.15 K, 100 kPa | 660.25 | 679.39 | 695.16 | 699.82 | 718.21 | 738.18 | 760.7 | 781.81 | 817.54 | 836.89
313.15 K, 2500 kPa | 663.22 | 682.37 | 698.14 | 702.79 | 721.17 | 741.14 | 763.65 | 784.75 | 820.43 | 839.76
313.15 K, 5000 kPa | 666.15 | 685.31 | 701.06 | 705.74 | 724.11 | 744.08 | 766.58 | 787.66 | 823.33 | 842.65
313.15 K, 10000 kPa | 671.67 | 690.86 | 706.6 | 711.27 | 729.65 | 749.65 | 772.1 | 793.2 | 828.82 | 848.11
313.15 K, 15000 kPa | 676.77 | 695.99 | 711.76 | 716.43 | 734.82 | 754.83 | 777.29 | 798.39 | 833.99 | 853.27
313.15 K, 20000 kPa | 681.54 | 700.78 | 716.6 | 721.27 | 739.68 | 759.7 | 782.18 | 803.3 | 838.9 | 858.17
313.15 K, 25000 kPa | 686.03 | 705.32 | 721.16 | 725.85 | 744.28 | 764.34 | 786.8 | 807.96 | 843.57 | 862.84
313.15 K, 30000 kPa | 690.26 | 709.59 | 725.44 | 730.12 | 748.61 | 768.68 | 791.2 | 812.36 | 847.97 | 867.27
313.15 K, 35000 kPa | 694.28 | 713.66 | 729.55 | 734.28 | 752.76 | 772.87 | 795.4 | 816.59 | 852.24 | 871.55
323.15 K, 100 kPa | 650.68 | 669.65 | 685.16 | 689.81 | 708 | 727.88 | 750.16 | 771.11 | 806.56 | 825.76
323.15 K, 2500 kPa | 653.88 | 672.84 | 688.38 | 693.01 | 711.21 | 730.97 | 753.32 | 774.25 | 809.67 | 828.84
323.15 K, 5000 kPa | 657.08 | 676.07 | 691.59 | 696.23 | 714.41 | 734.25 | 756.52 | 777.43 | 812.8 | 831.94
323.15 K, 10000 kPa | 663.04 | 682.03 | 697.57 | 702.21 | 720.41 | 740.23 | 762.49 | 783.36 | 818.69 | 837.82
323.15 K, 15000 kPa | 668.53 | 687.54 | 703.11 | 707.76 | 725.96 | 745.81 | 768.07 | 788.94 | 824.21 | 843.35
323.15 K, 20000 kPa | 673.62 | 692.66 | 708.23 | 712.92 | 731.15 | 751.01 | 773.25 | 794.16 | 829.43 | 848.55
323.15 K, 25000 kPa | 678.38 | 697.47 | 713.06 | 717.75 | 736.01 | 755.88 | 778.17 | 799.07 | 834.36 | 853.47
323.15 K, 30000 kPa | 682.82 | 701.95 | 717.58 | 722.3 | 740.59 | 760.48 | 782.79 | 803.7 | 839.01 | 858.16
323.15 K, 35000 kPa | 687.05 | 706.22 | 721.89 | 726.62 | 744.94 | 764.87 | 787.22 | 808.14 | 843.47 | 862.63
333.15 K, 100 kPa | 640.84 | 659.59 | 674.97 | 679.61 | 697.62 | 717.27 | 739.37 | 760.13 | 795.31 | 814.35
333.15 K, 2500 kPa | 644.37 | 663.28 | 678.48 | 683.13 | 701.13 | 720.76 | 742.8 | 763.57 | 798.68 | 817.7
333.15 K, 5000 kPa | 647.85 | 666.6 | 681.96 | 686.6 | 704.59 | 724.22 | 746.27 | 766.97 | 802.05 | 821.05
333.15 K, 10000 kPa | 654.25 | 673.04 | 688.41 | 693.04 | 711.02 | 730.64 | 752.68 | 773.35 | 808.4 | 827.36
333.15 K, 15000 kPa | 660.12 | 678.96 | 694.34 | 698.97 | 716.97 | 736.59 | 758.64 | 779.29 | 814.33 | 833.22
333.15 K, 20000 kPa | 665.54 | 684.42 | 699.82 | 704.46 | 722.46 | 742.1 | 764.16 | 784.83 | 819.85 | 838.75
333.15 K, 25000 kPa | 670.56 | 689.51 | 704.94 | 709.59 | 727.62 | 747.28 | 769.35 | 790.03 | 825.07 | 843.95
333.15 K, 30000 kPa | 675.27 | 694.27 | 709.73 | 714.38 | 732.45 | 752.13 | 774.27 | 794.94 | 830 | 848.89
333.15 K, 35000 kPa | 679.71 | 698.78 | 714.25 | 718.92 | 737.02 | 756.72 | 778.9 | 799.6 | 834.7 | 853.59
